According to patent US20260041640A1 (INCYCLIX BIO, LLC, priority 2023, published 2026):
Read-outs that look alike come from different tables or passages of the source.

Experiment: First-in-human clinical study: plasma and whole blood PK of INX-315 (oral QD, ASD tablet)
Type: in vivo
Details: human, plasma, plasma
Text: All INX-315 tablets were taken at approximately the same time(s) each day.
Samples will also be collected pre-dose on Cycle 1 Days 2, 8, 16, and Day 22, and pre-dose on Day 1 of each subsequent cycle.
Standard non-compartmental PK parameters were estimated.
Geometric mean and geometric CV % will be included in the summary statistics.
PK parameters will be summarized descriptively by dosing cohort. AUC and Cmax values will also be presented in scatter plots. Dose proportionality will be assessed for AUC and Cmax using a power model. The 90% CI of the slope for each PK parameter will be estimated from the model and presented in a summary table.
Cohort 1 enrollment of 6 subjects dosed at 100 mg oral QD was completed in October of 2023.
Patients were upgraded to the 200 mg QD dose level and PK/PD plasma parameters were measured (FIG. 18A).
Patients were administered the 200 mg QD and 300 mg QD dose levels and PK/PD plasma parameters were measured.

NS(=O)(=O)c1ccc(Nc2ncc3cc4n(c3n2)C2(CCCCC2)C(=O)NN4)cc1 [INX-315]
concentration at 15 day (oral, 100 mg, 100 mg QD, Day 15 observed, mean of first two patients, read-out: Cmin^free): 9.2 ng/mL
concentration at 12 h (oral, 100 mg, 100 mg QD, first dose level (Table 5), read-out: C12 hr): 252 ng/mL
concentration at 24 h (oral, 100 mg, 100 mg QD, first dose level (Table 5), read-out: C24 hr): 177 ng/mL
Cmax (oral, 100 mg, 100 mg QD, first dose level (Table 5), read-out: Cmax): 388 ng/mL
AUC (oral, 100 mg, 100 mg QD, removing esophageal cancer patient with low exposure, read-out: Total Area (adjusted AUC)): 2740 ng·h/mL
concentration at 0.5 h (oral, 200 mg, 200 mg QD (n = 2), 0.5 hr): 69.6 ng/mL
concentration at 1 h (oral, 200 mg, 200 mg QD (n = 2), 1.0 hr): 109 ng/mL
concentration at 2 h (oral, 200 mg, 200 mg QD (n = 2), 2.0 hr): 246 ng/mL
concentration at 6 h (oral, 200 mg, 200 mg QD (n = 2), 6.0 hr): 343 ng/mL
concentration at 8 h (oral, 200 mg, 200 mg QD (n = 2), 8.0 hr): 374 ng/mL
concentration at 24 h (oral, 200 mg, 200 mg QD (n = 2), […], read-out: Mean plasma concentration): 141 ng/mL
AUC (oral, 200 mg, 200 mg QD (n = 2), read-out: Total Area (AUC)): 6260 ng·h/mL
AUC(0-t) (oral, 200 mg, 200 mg QD, Day 1, Cohort 2, read-out: AUClast, geometric mean): 8940 ng·h/mL
AUC(0-t) (oral, 200 mg, 200 mg QD, Day 1, Cohort 2, read-out: AUClast, median): 7970 ng·h/mL
Cmax (oral, 200 mg, 200 mg QD, Day 1, Cohort 2, read-out: Cmax, geometric mean): 590 ng/mL
Cmax (oral, 200 mg, 200 mg QD, Day 1, Cohort 2, read-out: Cmax, median): 577 ng/mL
Tmax (oral, 200 mg, 200 mg QD, Day 1, Cohort 2, read-out: Tmax, median): 8 h
Tmax (oral, 200 mg, 200 mg QD, Day 1, individual subjects, read-out: Tmax): 8 h
half-life (oral, 200 mg, 200 mg QD, Day 1, individual subjects, read-out: t1/2 (converted)): 1090 min
AUC(0-t) (oral, 200 mg, 200 mg QD, Day 15, Cohort 2, read-out: AUClast, geometric mean): 12200 ng·h/mL
AUC(0-t) (oral, 200 mg, 200 mg QD, Day 15, Cohort 2, read-out: AUClast, median): 13700 ng·h/mL
Cmax (oral, 200 mg, 200 mg QD, Day 15, Cohort 2, read-out: Cmax, geometric mean): 922 ng/mL
Cmax (oral, 200 mg, 200 mg QD, Day 15, Cohort 2, read-out: Cmax, median): 888 ng/mL
Tmax (oral, 200 mg, 200 mg QD, Day 15, Cohort 2, read-out: Tmax, median): 6 h
half-life (oral, 200 mg, 200 mg QD, Day 15, Cohort 2, read-out: t1/2, geometric mean (converted)): 648 min
half-life (oral, 200 mg, 200 mg QD, Day 15, Cohort 2, read-out: t1/2, median (converted)): 630 min
Cmax (oral, 200 mg, 200 mg QD, Day 15, individual subjects, read-out: Cmax): 779 ng/mL
half-life (oral, 200 mg, 200 mg QD, Day 15, individual subjects, read-out: t1/2 (converted)): 502 min
AUC (oral, 300 mg, Cohort 3 (300 mg QD), Day 1, individual subjects, read-out: AUC Plasma): 8200 ng·h/mL
AUC (oral, 300 mg, Cohort 3 (300 mg QD), Day 15, Tlast = 6 hours, read-out: AUC Plasma): 4570 ng·h/mL
AUC (oral, 300 mg, Cohort 3 (300 mg QD), Day 15, individual subjects, read-out: AUC Plasma): 5820 ng·h/mL
AUC(0-t) (oral, 300 mg, 300 mg QD cohort, Day 1, geometric mean, read-out: AUClast, Geometric Mean): 9550 ng·h/mL
Cmax (oral, 300 mg, 300 mg QD cohort, Day 1, geometric mean, read-out: Cmax, Geometric Mean): 628 ng/mL
AUC(0-t) (oral, 300 mg, 300 mg QD cohort, Day 1, individual subjects, read-out: AUClast): 10200 ng·h/mL
Cmax (oral, 300 mg, 300 mg QD cohort, Day 1, individual subjects, read-out: Cmax): 727 ng/mL
Tmax (oral, 300 mg, 300 mg QD cohort, Day 1, individual subjects, read-out: Tmax): 8 h
half-life (oral, 300 mg, 300 mg QD cohort, Day 1, individual subjects, read-out: t1/2 (converted)): 1040 min
AUC(0-t) (oral, 300 mg, 300 mg QD cohort, Day 1, median, read-out: AUClast, Median): 10200 ng·h/mL
Cmax (oral, 300 mg, 300 mg QD cohort, Day 1, median, read-out: Cmax, Median): 615 ng/mL
Tmax (oral, 300 mg, 300 mg QD cohort, Day 1, median, read-out: Tmax, Median): 8 h
AUC(0-t) (oral, 300 mg, 300 mg QD cohort, Day 15, individual subjects, read-out: AUClast): 5590 ng·h/mL
Cmax (oral, 300 mg, 300 mg QD cohort, Day 15, individual subjects, read-out: Cmax): 568 ng/mL
Tmax (oral, 300 mg, 300 mg QD cohort, Day 15, individual subjects, read-out: Tmax): 1 h
half-life (oral, 300 mg, 300 mg QD cohort, Day 15, individual subjects, read-out: t1/2 (converted)): 554 min
AUC(0-t) (po, 100 mg, 100 mg QD cohort, Day 1, geometric mean, read-out: AUClast, Geometric Mean): 2020 ng·h/mL
Cmax (po, 100 mg, 100 mg QD cohort, Day 1, geometric mean, read-out: Cmax, Geometric Mean): 148 ng/mL
half-life (po, 100 mg, 100 mg QD cohort, Day 1, geometric mean, read-out: t1/2, Geometric Mean (converted)): 786 min
half-life (po, 100 mg, 100 mg QD cohort, Day 1, individual subjects, read-out: t1/2 (converted)): 690 min
AUC(0-t) (po, 100 mg, 100 mg QD cohort, Day 1, median, read-out: AUClast, Median): 2280 ng·h/mL
Cmax (po, 100 mg, 100 mg QD cohort, Day 1, median, read-out: Cmax, Median): 187 ng/mL
